These results are taken from patent US11370784B2 (MISSION THERAPEUTICS LIMITED, priority 2016, dated 2022).

Structures are written as SMILES. Some results are limits rather than exact numbers.

The target of the assay is USP30 (Homo sapiens (Human), UniProt Q70CQ3). Nature of the assay: USP30 biochemical IC50 assay. To be noted: fluorescence polarisation, TAMRA labelled peptide linked to ubiquitin as substrate; enzyme and compound incubated 30 min at room temp; read-out: IC50 range. On the procedure:
Reactions were performed in duplicate in black 384 well plates (small volume, Greiner 784076) in a final reaction volume of 21 μl. Either 1 μl of 50% DMSO or diluted compound was added to the plate. USP30 was diluted in reaction buffer (40 mM Tris, pH 7.5, 0.005% Tween 20, 0.5 mg/ml BSA, 5 mM beta-mercaptoethanol) to the equivalent of 0.05 μl/well and 10 μl of diluted USP30 was added to the compound. Enzyme and compound were incubated for 30 min at room temp. Reactions were initiated by the addition of 50 nM of TAMRA labelled peptide linked to ubiquitin via an iso-peptide bond as fluorescence polarisation substrate. Reactions were read immediately after addition of substrate and following a 2 h incubation at room temperature. Readings were performed on a Pherastar Plus (BMG Labtech). λ Excitation 540 nm; λ Emission 590 nm.
A general note: Polarisation of emitted light reports the rotation of a fluorescent probe.

Sequence of USP30 (Q70CQ3 57-517): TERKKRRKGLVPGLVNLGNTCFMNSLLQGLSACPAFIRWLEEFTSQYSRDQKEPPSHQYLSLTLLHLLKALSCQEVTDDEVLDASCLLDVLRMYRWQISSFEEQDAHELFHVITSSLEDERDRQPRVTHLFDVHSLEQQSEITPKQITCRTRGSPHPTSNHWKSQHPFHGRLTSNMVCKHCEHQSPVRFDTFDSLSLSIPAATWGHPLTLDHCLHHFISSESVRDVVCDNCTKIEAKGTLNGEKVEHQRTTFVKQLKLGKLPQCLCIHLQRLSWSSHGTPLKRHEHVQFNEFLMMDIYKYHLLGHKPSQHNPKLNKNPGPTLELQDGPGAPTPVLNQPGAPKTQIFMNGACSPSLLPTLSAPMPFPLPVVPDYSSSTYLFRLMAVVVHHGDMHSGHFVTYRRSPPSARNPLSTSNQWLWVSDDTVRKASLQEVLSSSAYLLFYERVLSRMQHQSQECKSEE

In the case of `N#CN1CCO[C@@H](C(=O)Nc2ncc(-c3ccccc3)s2)C1` [Example 20, (R)-4-Cyano-N-(5-phenylthiazol-2-yl)morpholine-2-carboxamide], the IC50 (as a rule, the point on the concentration scale where inhibition reaches its midpoint) lay in the range of 100 to 1000 nM.

With `N#CN1CCOC(C(=O)Nc2ncc(-c3ccc(F)cc3)s2)C1` (stereo not shown) [Example 2, 4-Cyano-N-(5-(4-fluorophenyl)thiazol-2-yl)morpholine-2-carboxamide], the IC50 was in the range of 100 to 1000 nM.

Take `CC(C)Oc1cccc(-c2cc(NC(=O)[C@H]3CN(C#N)CCO3)ncn2)c1` [Example 23, (R)-4-Cyano-N-(6-(3-isopropoxy-phenyl)pyrimidin-4-yl)morpholine-2-carboxamide]: the IC50 was in the range of 1000 to 10000 nM.

In the case of `N#CN1CCOC(C(=O)Nc2ccc(-c3ccccc3)cc2)C1` (stereo not shown) [Example 9, N-([1,1′-Biphenyl]-4-yl)-4-ycanomorpholine-2-carboxamide], the concentration for half-maximal inhibition (IC50) lay within 1000 to 10000 nM.

Consider `N#Cc1cc(-c2ccnc(NC(=O)C3CN(C#N)CCO3)c2)ccn1` (stereo not shown) [Example 18, 4-Cyano-N-(2′-cyano-[4,4′-bipyridin]-2-yl)morpholine-2-carboxamide], for which the IC50 lay in the range of 100 to 1000 nM.

For `N#CN1CCOC(C(=O)Nc2nc3ccc(-c4cn[nH]c4)cc3s2)C1` (stereo not shown) [Example 7, N-(6-(1H-Pyrazol-4-yl)benzo[d]thiazol-2-yl)-4-cyanomorpholine-2-carboxamide], the IC50 lay in the range of 100 to 1000 nM.

Consider `N#CN1CCC[C@](F)(C(=O)Nc2cnc(-c3cccc4[nH]ncc34)cn2)C1` [Example 87, (R)—N-(5-(1H-Indazol-4-yl)pyrazin-2-yl)-1-cyano-3-fluoropiperidine-3-carboxamide], for which the IC50 was under 100 nM.

Take `N#CN1CCO[C@H](C(=O)Nc2ncc(-c3ccccc3)s2)C1` [Example 33, (S)-4-Cyano-N-(5-phenylthiazol-2-yl)morpholine-2-carboxamide]: the IC50 fell in the range of 1000 to 10000 nM.

`N#CN1CCC[C@](F)(C(=O)Nc2cn(-c3cccc(C(F)(F)F)c3)cn2)C1` (stereo in doubt) [Example 80, 1-Cyano-3-fluoro-N-(1-(3-(trifluoromethyl)phenyl)-1H-imidazol-4-yl)piperidine-3-carboxamide]: the IC50 was in the range of 100 to 1000 nM.

On to `N#CN1CCO[C@@H](C(=O)Nc2cc(-c3cccc4[nH]ncc34)ncn2)C1` [Example 30, (R)-N-(6-(1H-indazol-4-yl)pyrimidin-4-yl)-4-cyanomorpholine-2-carboxamide], for which the IC50 fell in the range of 1000 to 10000 nM.

Consider `N#CN1CC(C(=O)Nc2nc3ccc(-c4cn[nH]c4)cc3s2)CC(F)(F)C1` (stereo not shown) [Example 59, N-(6-(1H-Pyrazol-4-yl)benzo[d]thiazol-2-yl)-1-cyano-5,5-difluoropiperidine-3-carboxamide], for which the half-inhibitory concentration (IC50) was in the range of 1000 to 10000 nM.

For the compound `N#CN1CCC[C@](F)(C(=O)Nc2ncc(-c3cccc4cn[nH]c34)cn2)C1` [Example 92, (R)—N-(5-(1H-Indazol-7-yl)pyrimidin-2-yl)-1-cyano-3-fluoropiperidine-3-carboxamide], the IC50 is under 100 nM.

In the case of `N#Cc1cccc(-c2cc(NC(=O)C3(F)CCCN(C#N)C3)no2)c1` (stereo not shown) [Example 64, 1-Cyano-N-(5-(3-cyanophenyl)isoxazol-3-yl)-3-fluoropiperidine-3-carboxamide], the IC50 lay in the range of 100 to 1000 nM.

As for `N#CN1CCCC(F)(C(=O)Nc2nc3ccc(-c4cn[nH]c4)cc3s2)C1` (stereo not shown) [Example 50, N-(6-(1H-Pyrazol-4-yl)benzo[d]thiazol-2-yl)-1-cyano-3-fluoropiperidine-3-carboxamide], the concentration for half-maximal inhibition (IC50) fell in the range of 1000 to 10000 nM.

Take `N#CN1CCCC(F)(C(=O)Nc2cn(-c3ccccc3)cn2)C1` (stereo not shown) [Example 43, 1-Cyano-3-fluoro-N-(1-phenyl-1H-imidazol-4-yl)piperidine-3-carboxamide]: the IC50 was in the range of 100 to 1000 nM.

Turning to `N#CN1CCC[C@](F)(C(=O)Nc2ccc(-c3cccc4[nH]ncc34)cn2)C1` [Example 85, (R)—N-(5-(1H-Indazol-4-yl)pyridin-2-yl)-1-cyano-3-fluoropiperidine-3-carboxamide], the IC50 is under 100 nM.

With `N#CN1CCO[C@@H](C(=O)Nc2cc(-c3ccc(Cl)cc3)ncn2)C1` [Example 26, (R)-N-(6-(4-Chlorophenyl)-pyrimidin-4-yl)-4-cyanomorpholine-2-carboxamide], the IC50 fell in the range of 100 to 1000 nM.

With `N#Cc1ccnc(-c2ccnc(NC(=O)C3CN(C#N)CCO3)c2)c1` (stereo not shown) [Example 14, 4-Cyano-N-(4-cyano-[2,4′-bipyridin]-2′-yl)morpholine-2-carboxamide], the IC50 is 1000 to 10000 nM.

`N#Cc1cccc(-c2ccnc(NC(=O)[C@H]3CCCN(C#N)C3)c2)c1` [Example 57, (S)-1-Cyano-N-(4-(3-cyanophenyl)pyridin-2-yl)piperidine-3-carboxamide]: the IC50 fell in the range of 1000 to 10000 nM.

As to `N#CN1CCCC(C(=O)Nc2cc(-c3ccccc3)no2)C1` (stereo not shown) [Example 41, 1-Cyano-N-(3-phenylisoxazol-5-yl)piperidine-3-carboxamide], the IC50 lay in the range of 1000 to 10000 nM.

Regarding `N#CN1CCC[C@](F)(C(=O)Nc2ccc(-c3ccn[nH]3)cn2)C1` [Example 72, (R)—N-(5-(1H-Pyrazol-5-yl)pyridin-2-yl)-1-cyano-3-fluoropiperidine-3-carboxamide], the IC50 is 100 to 1000 nM.

As for `N#Cc1ccc2cnc(NC(=O)[C@H]3CN(C#N)CCO3)cc2c1` [Example 65, (R)-4-Cyano-N-(6-cyanoisoquinolin-3-yl)morpholine-2-carboxamide], the IC50 fell in the range of 1000 to 10000 nM.

For `N#CN1CCCC(C(=O)Nc2cc(-c3ccccc3)ccn2)C1` (stereo not shown) [Example 40, 1-Cyano-N-(4-phenylpyridin-2-yl)piperidine-3-carboxamide], the 50% inhibitory concentration (IC50) was in the range of 1000 to 10000 nM.

With `CN1CCN(C#N)C[C@@H]1C(=O)Nc1ncc(-c2ccccc2)s1` [Example 68], the IC50 is 1000 to 10000 nM.

With `N#Cc1ccnc(N2CCC(NC(=O)[C@H]3CN(C#N)CCO3)C2)c1` (stereo partly drawn) [Example 66, (2R)-4-Cyano-N-(1-(4-cyanopyridin-2-yl)pyrrolidin-3-yl)morpholine-2-carboxamide], the IC50 lay in the range of 1000 to 10000 nM.

`N#CN1CCC[C@](F)(C(=O)Nc2cnc(-c3cccc4cn[nH]c34)cn2)C1` [Example 86, (R)—N-(5-(1H-Indazol-7-yl)pyrazin-2-yl)-1-cyano-3-fluoropiperidine-3-carboxamide]: the IC50 was under 100 nM.

Turning to `N#CN1CCO[C@@H](C(=O)Nc2cc(-c3cccc(C(F)(F)F)c3)no2)C1` [Example 51, (R)-4-Cyano-N-(3-(3-(trifluoromethyl)phenyl)isoxazol-5-yl)morpholine-2-carboxamide], the half-maximal inhibitory concentration (IC50) lay within 100 to 1000 nM.

As to `N#CN1CCCC(F)(C(=O)Nc2cc(-c3ccccc3)on2)C1` (stereo not shown) [Example 45, 1-Cyano-3-fluoro-N-(5-phenylisoxazol-3-yl)piperidine-3-carboxamide], the IC50 fell in the range of 100 to 1000 nM.

As to `N#CN1CCC[C@H](C(=O)Nc2ncc(-c3ccccc3)s2)C1` [Example 56, (S)-1-Cyano-N-(5-phenylthiazol-2-yl)piperidine-3-carboxamide], the IC50 was in the range of 1000 to 10000 nM.

Consider `N#CN1CCC[C@](F)(C(=O)Nc2ccc(-c3cccc4cn[nH]c34)nn2)C1` [Example 88, (R)—N-(6-(1H-indazol-7-yl)pyridazin-3-yl)-1-cyano-3-fluoropiperidine-3-carboxamide], for which the IC50 was under 100 nM.

Turning to `N#CN1CCO[C@@H](C(=O)Nc2cnc(-c3ccccc3)s2)C1` [Example 28, (R)-4-Cyano-N-(2-phenylthiazol-5-yl)morpholine-2-carboxamide], the IC50 fell in the range of 1000 to 10000 nM.

Take `N#CN1CCO[C@@H](C(=O)Nc2cc(-c3cccc(Cl)c3)ncn2)C1` [Example 21, (R)-N-(6-(3-Chlorophenyl)-pyrimidin-4-yl)-4-cyanomorpholine-2-carboxamide]: the IC50 is 100 to 1000 nM.

As to `COc1cccc(-c2cc(NC(=O)[C@H]3CN(C#N)CCO3)ncn2)c1` [Example 22, (R)-4-Cyano-N-(6-(3-methoxy-phenyl)pyrimidin-4-yl)morpholine-2-carboxamide], the IC50 was in the range of 1000 to 10000 nM.

Regarding `CCCOc1cc(NC(=O)C2CCCN(C#N)C2)ccc1-c1ccn[nH]1` (stereo not shown) [Example 36, 1-Cyano-N-(3-propoxy-4-(1H-pyrazol-5-yl)phenyl)piperidine-3-carboxamide], the IC50 was in the range of 100 to 1000 nM.

Take `N#CN1CCO[C@@H](C(=O)Nc2cc3cc(-c4cn[nH]c4)ccc3cn2)C1` [Example 31, (R)-N-(6-(1H-Pyrazol-4-yl)isoquinolin-3-yl)-4-cyanomorpholine-2-carboxamide]: the IC50 was 1000 to 10000 nM.

On to `N#CN1CCC[C@](F)(C(=O)Nc2cc(-c3cccc(Cl)c3)on2)C1` [Example 74, (R)—N-(5-(3-Chlorophenyl)isoxazol-3-yl)-1-cyano-3-fluoropiperidine-3-carboxamide], for which the IC50 is under 100 nM.

As for `N#Cc1cccc(-n2cnc(NC(=O)[C@@]3(F)CCCN(C#N)C3)c2)c1` [Example 79, (R)-1-Cyano-N-(1-(3-cyanophenyl)-1H-imidazol-4-yl)-3-fluoropiperidine-3-carboxamide], the IC50 fell in the range of 100 to 1000 nM.

Take `N#CN1CCO[C@@H](C(=O)Nc2cc(-c3cccc(C(N)=O)c3)ncn2)C1` [Example 27, (R)-N-(6-(3-Carbamoylphenyl)-pyrimidin-4-yl)-4-cyanomorpholine-2-carboxamide]: the IC50 lay within 1000 to 10000 nM.

On to `N#CN1CCCC(C(=O)Nc2ccc(-c3ccccc3)cn2)C1` (stereo not shown) [Example 39, 1-Cyano-N-(5-phenylpyridin-2-yl)piperidine-3-carboxamide], for which the IC50 was in the range of 1000 to 10000 nM.

In the case of `CS(=O)(=O)N1CCN(C#N)CC1C(=O)Nc1ncc(-c2ccccc2)s1` (stereo not shown) [Example 71, 4-Cyano-1-(methylsulfonyl)-N-(5-phenylthiazol-2-yl)piperazine-2-carboxamide], the IC50 is 1000 to 10000 nM.
